This data set concerns PBS pH 7.4 stability, 37 C, LC-MS/MS, 48 h. In words: Inhibitors of 12-hLO: PBS Stability Profiling. The following applies: at 2 µM; stronger effect = higher value. The text has this: Assay Provider: Holman, T.R., University of California, Santa Cruz Grant #: MH08128301 Screening Center PI: Austin, C.P. Screening Center: NIH Chemical Genomics Center [NCGC] Human lipoxygenase 12hLO is a member of the closely related lipoxygenase family of enzymes which catalyze the site-specific oxidation of arachidonic acid to various hormone precursor molecules and as such is a candidate for drug development in a variety of disease areas, such as cancer and inflammation. After qHTS, hits were confirmed in follow-up assays, and leads were optimized through SAR. The resulting lead compound was further characterized through a battery ADME-Tox experiments, and this assay describes its stability in PBS buffer. The stability of the lead compound in PBS buffer is tested because this parameter has a significant impact on many ADME-concerned properties of drugs, such as uptake, distribution, transport, and eventually bioavailability.
2microM of compound is incubated in PBS buffer at pH 7; the reference compound is procaine. Compounds are incubated at 37 deg C for the pre-determined time periods and the when aliquots are removed. Samples are analyzed with LC-MS/MS.

Consider `CC(=O)NC(c1cccs1)c1cc(Br)c2cccnc2c1O` (stereo unspecified), for which the percent remaining was 100%.

Values taken from PubChem BioAssay AID504581 (National Center for Advancing Translational Sciences (NCATS), 2011).
